In BindingDB's records for doi:10.1021/jm100158v (University of California, 2010):

Test: Inhibition of Escherichia coli K12 ADCS by spectrophotometry

- Ki: 770 µM
SMILES: Cc1ccc(C(=O)N[C@@H](CCCCNC(=O)c2cccc(OCC(=O)O)c2)C(=O)N[C@@H](Cc2cccc(Cl)c2)C(N)=O)c([N+](=O)[O-])c1O [2-(3-((S)-6-((S)-1-amino-3-(3-chlorophenyl)-1-oxopropan-2-ylamino)-5-(3-hydroxy-4-methyl-2-nitrobenzamido)-6-oxohexylcarbamoyl)phenoxy)acetic acid]
